Laboratory results from ChEMBL document CHEMBL4000146, “Synthesis, antiplasmodial activity and mechanistic studies of pyrimidine-5-carbonitrile and quinoline hybrids” (Eur J Med Chem, 2015).
The source made the active and inactive calls. No cut-off for these calls is given here.

What was measured:
Punta Toro virus = type: functional; details: Vero
Human alphaherpesvirus 2 = type: functional, cell-based; details: Human alphaherpesvirus 2, G, HEL
Coxsackievirus [1] = type: functional; details: B4, Vero
Influenza B virus = test: microbe, parasite or virus in culture; details: MDCK
unidentified adenovirus = type: functional, cell-based; details: HEL
Human alphaherpesvirus 1 [2] = type: functional, cell-based; details: Human alphaherpesvirus 1, KOS, HEL
[3] = Selectivity index, ratio of IC50 for human HeLa cells to IC50 for chloroquine-resistant asexual intraerythrocytic stage of Plasmodium falciparum Dd2; type: toxicity, cell-based; details: read-out: Ratio IC50
Human alphaherpesvirus 3 [4] = type: functional, cell-based; details: Human alphaherpesvirus 3, 07-1, HEL
[5] = Cytotoxicity against african green monkey Vero cells assessed as alteration of normal cell morphology by microscopic analysis; type: cell-based; details: chlorocebus sabaeus
L1210 = test: Cytotoxicity against mouse L1210 cells assessed as inhibition of cell proliferation by Coulter counter analysis; type: cell-based
Plasmodium falciparum [6] = test: microbe, parasite or virus in culture; details: NF54
Plasmodium falciparum [7] = test: Potency index, ratio of chloroquine IC50 to test compound IC50 for chloroquine-resistant asexual intraerythrocytic stage of Plasmodium falciparum Dd2; type: functional
Human alphaherpesvirus 3 [8] = type: functional, cell-based; details: Human alphaherpesvirus 3, strain Oka vaccine, HEL
CCRF-CEM = test: Cytotoxicity against human CEM cells assessed as inhibition of cell proliferation by Coulter counter analysis; type: cell-based
[9] = tested on: Mammalian orthoreovirus 1; type: functional; details: Mammalian orthoreovirus 1, Vero
[10] = Cytotoxicity against MDCK cells assessed as alteration of normal cell morphology by microscopic analysis; type: cell-based, Canis lupus familiaris; details: dog
[11] = tested on: Vesicular stomatitis virus; test: microbe, parasite or virus in culture; details: HeLa
[12] = tested on: Vesicular stomatitis virus; test: microbe, parasite or virus in culture; details: HEL
Plasmodium falciparum [13] = test: microbe, parasite or virus in culture; details: Dd2
Influenza A virus [14] = test: microbe, parasite or virus in culture; details: H1N1, MDCK
Vaccinia virus = test: microbe, parasite or virus in culture; details: Orthopoxvirus vaccinia, HEL
Coxsackievirus [15] = type: functional, cell-based; details: B4, HeLa
Human orthopneumovirus = type: functional, cell-based; details: human respiratory syncytial virus, HeLa
[16] = Cytotoxicity against human HeLa cells assessed as alteration of normal cell morphology by microscopic analysis; type: cell-based
Plasmodium falciparum [17] = test: Resistance index, ratio of IC50 for chloroquine-resistant asexual intraerythrocytic stage of Plasmodium falciparum Dd2 to IC50 for chloroquine-sensitive asexual intraerythrocytic stage of Plasmodium falciparum NF54; type: functional
HeLa = test: Cytotoxicity against human HeLa cells assessed as inhibition of cell proliferation by Coulter counter analysis; type: cell-based
Human betaherpesvirus 5 [18] = type: functional, cell-based; details: Human betaherpesvirus 5, AD169, HEL
[19] = Cytotoxicity against human HEL cells assessed as inhibition of cell viability by colorimetric formazan-based MTS assay
[20] = Selectivity index, ratio of IC50 for human HeLa cells to IC50 for chloroquine-sensitive asexual intraerythrocytic stage of Plasmodium falciparum NF54; type: toxicity, cell-based; details: read-out: Ratio IC50
[21] = Cytotoxicity against human HEL cells assessed as alteration of normal cell morphology by microscopic analysis; type: cell-based
Human respirovirus 3 = type: functional; details: Human respirovirus 3, Vero
Influenza A virus [22] = test: microbe, parasite or virus in culture; details: H3N2, MDCK
Human alphaherpesvirus 1 [23] = type: functional, cell-based; details: Human alphaherpesvirus 1, KOS, HEL; remark: listed apart in the source
Sindbis virus = type: functional; details: Vero
[24] = Cytotoxicity against MDCK cells assessed as inhibition of cell viability by colorimetric formazan-based MTS assay; design: species or system Canis lupus familiaris; details: dog
Human betaherpesvirus 5 [25] = type: functional, cell-based; details: Human betaherpesvirus 5, Davis, HEL
Heme [26] = test: Binding affinity to monomeric heme (unknown origin) assessed as monomeric heme-compound complex formation up to 37.3 uM by UV-visible absorption spectrophotometry
Heme [27] = test: Binding affinity to monomeric heme (unknown origin) assessed as 1:1 ratio of monomeric heme-compound complex at 0.24 mM by mass spectra analysis
Heme [28] = test: Binding affinity to monomeric heme (unknown origin) assessed as 1:1 stoichiometry for monomeric heme-compound complex at pH 7.5 by Job's plot analysis
mu-oxodimeric heme = test: Binding affinity to mu-oxo-heme (unknown origin) assessed as 1:1 stoichiometry for mu-oxo-heme-compound complex at pH 5.8 by Job's plot analysis
Heme [29] = test: Binding affinity to monomeric heme (unknown origin) assessed as 1:1 stoichiometry for monomeric heme-compound complex at pH 5.6 by Job's plot analysis

Structure (SMILES)	EC50 (Punta Toro virus)	EC50 (Human alphaherpesvirus 2)	EC50 (Coxsackievirus [1])	EC50 (Influenza B virus)	EC50 (unidentified adenovirus)	EC50 (Human alphaherpesvirus 1 [2])	selectivity ratio [3]	EC50 (Human alphaherpesvirus 3 [4])	MCC [5]	IC50 (L1210)	IC50 (Plasmodium falciparum [6])	EC50 (Human alphaherpesvirus 3 [8])	IC50 (CCRF-CEM)	EC50 [9]	MCC [10]	EC50 [11]	EC50 [12]	IC50 (Plasmodium falciparum [13])	EC50 (Influenza A virus [14])	EC50 (Vaccinia virus)	other results
COc1cc(-c2nc(SC)nc(NCCCCNc3ccnc4cc(Cl)ccc34)c2C#N)cc(OC)c1OC	> 0.8 µM	> 0.8 µM	> 0.8 µM	> 0.8 µM	> 0.8 µM	> 0.8 µM	37.9	> 4 µM	4 µM	3.8 µM	0.0909 µM	> 4 µM	3.6 µM	> 0.8 µM	4 µM	> 4 µM	> 0.8 µM	0.0895 µM	> 0.8 µM	> 0.8 µM	Ratio IC50 (Plasmodium falciparum [7]): 3; EC50 (Coxsackievirus [15]): > 4 µM; EC50 (Human orthopneumovirus): > 4 µM; MCC [16]: 20 µM; Ratio IC50 (Plasmodium falciparum [17]): 0.98; IC50 (HeLa): 3.4 µM; EC50 (Human betaherpesvirus 5 [18]): > 4 µM; CC50 [19]: 1.5 µM; selectivity ratio [20]: 37.4; MCC [21]: 4 to 20 µM; EC50 (Human respirovirus 3): > 0.8 µM; EC50 (Influenza A virus [22]): > 0.8 µM; EC50 (Human alphaherpesvirus 1 [23]): > 0.8 µM; EC50 (Sindbis virus): > 0.8 µM; CC50 [24]: 2 µM; EC50 (Human betaherpesvirus 5 [25]): > 4 µM
CSc1nc(-c2ccccc2)c(C#N)c(N2CCN(c3ccnc4cc(Cl)ccc34)CC2)n1	> 100 µM	> 100 µM	> 100 µM	> 100 µM	> 100 µM	> 100 µM	> 1.1	> 100 µM	> 100 µM	> 250 µM	132 µM	> 100 µM	> 250 µM	> 100 µM	> 100 µM	> 100 µM	> 100 µM	212 µM	> 100 µM	> 100 µM	Activity (Heme [26]): inactive; EC50 (Coxsackievirus [15]): > 100 µM; EC50 (Human orthopneumovirus): > 100 µM; MCC [16]: > 100 µM; Ratio IC50 (Plasmodium falciparum [17]): 1.6; IC50 (HeLa): > 250 µM; EC50 (Human betaherpesvirus 5 [18]): > 20 µM; CC50 [19]: > 100 µM; selectivity ratio [20]: > 1.9; MCC [21]: ≥ 100 µM; EC50 (Human respirovirus 3): > 100 µM; EC50 (Influenza A virus [22]): > 100 µM; EC50 (Human alphaherpesvirus 1 [23]): > 100 µM; EC50 (Sindbis virus): > 100 µM; CC50 [24]: > 100 µM; EC50 (Human betaherpesvirus 5 [25]): > 100 µM
CSc1nc(NCCCCNc2ccnc3cc(Cl)ccc23)c(C#N)c(-c2cccc([N+](=O)[O-])c2)n1	> 4 µM	> 4 µM	> 4 µM	> 4 µM	> 4 µM	> 4 µM	19.7	> 0.8 µM	20 µM	2.1 µM	0.0685 µM	> 0.8 µM	2.1 µM	> 4 µM	20 µM	> 20 µM	> 4 µM	0.0558 µM	> 4 µM	> 4 µM	Ratio IC50 (Plasmodium falciparum [7]): 4; Activity (Heme [27]): Active; Activity (Heme [28]): Active; EC50 (Coxsackievirus [15]): > 20 µM; EC50 (Human orthopneumovirus): > 20 µM; MCC [16]: 100 µM; Ratio IC50 (Plasmodium falciparum [17]): 0.81; IC50 (HeLa): 1.1 µM; EC50 (Human betaherpesvirus 5 [18]): > 0.8 µM; CC50 [19]: 4.2 µM; selectivity ratio [20]: 16; MCC [21]: ≥ 4 µM; EC50 (Human respirovirus 3): > 4 µM; EC50 (Influenza A virus [22]): > 4 µM; EC50 (Human alphaherpesvirus 1 [23]): > 4 µM; EC50 (Sindbis virus): > 4 µM; Activity (mu-oxodimeric heme): Active; CC50 [24]: 9.6 µM; EC50 (Human betaherpesvirus 5 [25]): > 0.8 µM; Activity (Heme [29]): Active
CSc1nc(-c2ccc([N+](=O)[O-])cc2)c(C#N)c(N2CCN(c3ccnc4cc(Cl)ccc34)CC2)n1	> 20 µM	> 100 µM	> 20 µM	> 100 µM	> 100 µM	> 100 µM	23.1	> 100 µM	100 µM	206 µM	12.2 µM	> 100 µM	156 µM	> 20 µM	> 100 µM	> 100 µM	> 100 µM	9.86 µM	> 100 µM	> 100 µM	EC50 (Coxsackievirus [15]): > 100 µM; EC50 (Human orthopneumovirus): > 100 µM; MCC [16]: > 100 µM; Ratio IC50 (Plasmodium falciparum [17]): 0.8; IC50 (HeLa): 228 µM; EC50 (Human betaherpesvirus 5 [18]): > 100 µM; CC50 [19]: > 100 µM; selectivity ratio [20]: 18.6; MCC [21]: ≥ 100 µM; EC50 (Human respirovirus 3): > 20 µM; EC50 (Influenza A virus [22]): > 100 µM; EC50 (Human alphaherpesvirus 1 [23]): > 100 µM; EC50 (Sindbis virus): > 20 µM; CC50 [24]: > 100 µM; EC50 (Human betaherpesvirus 5 [25]): > 100 µM
N#Cc1c(NCCCCNc2ccnc3cc(Cl)ccc23)nc(N2CCOCC2)nc1-c1ccccc1	> 4 µM	> 4 µM	> 4 µM	> 4 µM	> 4 µM	> 4 µM	44	> 4 µM	20 µM	4.2 µM	0.198 µM	> 4 µM	4.6 µM	> 4 µM	20 µM	> 4 µM	> 4 µM	0.386 µM	> 4 µM	> 4 µM	EC50 (Coxsackievirus [15]): > 4 µM; EC50 (Human orthopneumovirus): > 4 µM; MCC [16]: 20 µM; Ratio IC50 (Plasmodium falciparum [17]): 1.95; IC50 (HeLa): 17 µM; EC50 (Human betaherpesvirus 5 [18]): > 4 µM; CC50 [19]: 11.9 µM; selectivity ratio [20]: 86.3; MCC [21]: 20 µM; EC50 (Human respirovirus 3): > 4 µM; EC50 (Influenza A virus [22]): > 4 µM; EC50 (Human alphaherpesvirus 1 [23]): > 4 µM; EC50 (Sindbis virus): > 4 µM; CC50 [24]: 10.9 µM; EC50 (Human betaherpesvirus 5 [25]): > 4 µM
